Experimental data as given in US20100305326A1, “Chemical Fragment Screening and Assembly Utilizing Common Chemistry for NMR Probe Introduction and Fragment Linkage” (Marquette University, priority 2009, published 2010).

System: KCNQ channel protein
Assay: 1D 13C half filtered 1H-1H NMR NOE fragment screening
Format: binding, rat
Conditions: example of FIG. 3; mono- or di-methylated fragment A of DMP543; KCNQ protein solution
Description: The above-described NMR fragment assembly methods may be utilized to identify ligands for the KCNQ potassium channel, which can be affinity-purified from rat brain extracts using an affinity column with ligands such as DMP543, XE991 or linopirdine, covalently attached to a resin. The KCNQ channel is a membrane-bound protein and is considered large for NMR studies. […] Indeed, such methods have been recently applied to G-protein coupled receptors by using difference spectra in order to remove potential spectral artifacts from NMR experiments from chemical fragments that penetrate the lipid layer (Assadi-Porter et al, 2008). An important variation to that procedure (and inter-ligand NOE studies, as in FIG. 1), which is employed as part of the presently disclosed methods is to chemically place a ^13C labeled methyl group as an NMR reported group (the “NMR probe”), analogous to the antenna in FIG. 1. […] These experiments can be done on a 400 MHz, 500 MHz, 600 MHz or higher field NMR spectrometer, ideally equipped with a cryoprobe (and cryocooled ^13C preamp). […]
As a control in these experiments, the measured NOE or saturation transfer signal might be of the sample (perhaps a tissue extract) that has had the protein target removed (KCNQ in this case), which could be done using an affinity column. […]

`Cc1ccnc(F)c1` [2-fluoro-4-methylpyridine] was tested, and the “NOE signal between 13CH3 group of fragment A and methyl group of fragment B (binding within 5 angstroms)” value was “can show an NOE signal”.
